Data as given in patent US11021481B2, “Substituted isoindolin-1-ones and 2,3-dihydro-1h-pyrrolo[3,4-c]pyridin-1-ones as HPK1 antagonists” (Nimbus Saturn, Inc., priority 2019, dated 2021).

target: HPK1 (Homo sapiens (Human), UniProt Q92918); experiment: HPK1 biochemical enzyme assay (microfluidic mobility shift assay); settings: 1.5 nM HPK1, ATP 1 mM final, 30 min preincubation, 60 min at RT, Caliper EZ Reader; read-out: HPK1 1000UMATP caliper IC50
How it was run: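 Mobility shift readout of HPK1 activity after a 60 min RT reaction with 1 mM ATP, 1 μM substrate and 5 mM MgCl2. Enzyme/substrate mix was first exposed to compounds for 30 min, using ten-point curves topping at 3 μM final.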

Chain of HPK1 (Q92918 whole entry): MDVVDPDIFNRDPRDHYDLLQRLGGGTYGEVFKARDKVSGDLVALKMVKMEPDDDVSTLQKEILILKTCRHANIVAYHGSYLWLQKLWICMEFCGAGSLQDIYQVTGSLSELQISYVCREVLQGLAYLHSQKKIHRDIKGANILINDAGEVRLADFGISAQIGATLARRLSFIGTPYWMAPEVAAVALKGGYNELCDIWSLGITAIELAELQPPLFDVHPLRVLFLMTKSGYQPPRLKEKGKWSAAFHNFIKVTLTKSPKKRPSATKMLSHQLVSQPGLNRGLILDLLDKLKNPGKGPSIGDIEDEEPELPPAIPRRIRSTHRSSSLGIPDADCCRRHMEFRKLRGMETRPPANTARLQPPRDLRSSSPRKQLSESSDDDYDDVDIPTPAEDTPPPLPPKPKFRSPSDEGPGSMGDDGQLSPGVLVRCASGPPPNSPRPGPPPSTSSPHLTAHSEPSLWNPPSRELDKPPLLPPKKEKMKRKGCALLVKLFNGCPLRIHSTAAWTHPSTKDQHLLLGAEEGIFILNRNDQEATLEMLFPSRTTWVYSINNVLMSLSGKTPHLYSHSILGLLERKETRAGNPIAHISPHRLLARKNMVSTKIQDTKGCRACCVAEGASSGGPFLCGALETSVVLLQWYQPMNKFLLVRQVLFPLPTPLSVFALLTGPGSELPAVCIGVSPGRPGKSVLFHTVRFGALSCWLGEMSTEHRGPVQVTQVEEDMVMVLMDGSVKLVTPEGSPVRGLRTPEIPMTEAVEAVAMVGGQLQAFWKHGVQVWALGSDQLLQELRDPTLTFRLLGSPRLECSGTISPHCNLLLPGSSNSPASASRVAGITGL

IC50 [nM] | Structure (SMILES)
> 1000 | O=C1NCc2c(-c3cccc4ccnn34)ncc(Nc3ccc(N4CCC(O)CC4)cn3)c21 [I-368, 7-((5-(4-hydroxypiperidin-1-yl)pyridin-2-yl)amino)-4-(pyrazolo[1,5-a]pyridin-7-yl)-2,3-dihydro-1H-pyrrolo[3,4-c]pyridin-1-one]
< 100 | O=C1NCc2c(-c3ccc4cnccn34)ccc(Nc3ccc(N4CCC(O)CC4)cn3)c21 [I-369, 7-((5-(4-hydroxypiper-idin-1-yl)pyridin-2-yl)amino)-4-(pyrrolo[1,2-a]pyrazin-6-yl)isoindolin-1-one]
100 to 1000 | O=C1NCc2c(-c3cccn4nccc34)ncc(Nc3ccc(N4CCC(O)CC4)cn3)c21 [I-370, 7-((5-(4-hydroxy-piperidin-1-yl)pyridin-2-yl)amino)-4-(pyrazolo[1,5-a]pyridin-4-yl)-2,3-dihydro-1H-pyrrolo[3,4-c]pyridin-1-one]
< 100 | O=C1NCc2c(-c3cnc4cc(F)ccn34)ccc(Nc3ccc(C4(O)CCOCC4)cn3)c21 [I-371, 4-(7-fluoroimidazo [1,2-a]pyridin-3-yl)-7-((5-(4-hydroxtetra-hydro-2H-pyran-4-yl)pyridin-2-yl)amino)isoin-dolin-1-one]
< 100 | COc1cc(Nc2ccc(-c3cnc4cc(F)ccn34)c3c2C(=O)NC3)ncc1N1CCC(O)CC1 [I-372, 4-(7-fluoroimidazo [1,2-a]pyridin-3-yl)-7-((5-(4-hydroxypipendin-1-yl)-4-methoxypyridin-2-yl)amino)isoin-dolin-1-one]
< 100 | Cc1csc2c(-c3ncc(Nc4ccc(N5CCC(O)CC5)cn4)c4c3CNC4=O)ccnc12 [I-373, 7-((5-(4-hydroxypiperidin-1-yl)pyridin-2-yl)amino)-4-(3-methylthieno [3,2-b]pyridin-7-yl)-2,3-dihydro-1H-pyrrolo[3,4-c]pyridin-1-one]
< 100 | Cn1cc(-c2ccc(Nc3ccc(N4CCC(O)CC4)cn3)c3c2CNC3=O)c2ccnnc21 [I-374, 7-((5-(4-hydroxy-piperidin-1-yl)pyridin-2-yl)amino)-4-(7-methyl-7H-pyrrolo[2,3-c]pyridazin-5-yl)isoindolin-1-one]
> 1000 | Cn1nccc2c(-c3ccc(Nc4ccc(N5CCC(O)CC5)cn4)c4c3CNC4=O)cnc1-2 [I-375, 7-((5-(4-hydroxy-piperidin-1-yl)pyridin-2-yl)amino)-4-(1-methyl-1H-pyrrolo[2,3-c]pyridazin-5-yl)isoindolin-1-one]
100 to 1000 | O=C1NCc2c(-c3cncc4nccn34)ncc(Nc3ccc(N4CCC(O)CC4)cn3)c21 [I-376, 7-((5-(4-hydroxypiperidin-1-yl)pyridin-2-yl)amino)-4-(imidazo[1,2-a]pyrazin-5-yl)-2,3-dihydro-1H-pyrrolo[3,4-c]pyridin-1-one]
100 to 1000 | O=C1NCc2c(-c3cnc4cc(F)ccn34)ccc(Nc3ccc(S(=O)(=O)CC4COC4)cn3)c21 [I-377, 4-(7-fluoroimidazo [1,2-a]pyridin-3-yl)-7-((5-((oxctan-3-ylmethyl)sulf-onyl)pyridin-2-yl)amino)isoin-dolin-1-one]
100 to 1000 | O=C1NCc2c(-c3cnc4cc(CN5CC(F)C5)ccn34)ccc(Nc3ccc(N4CCC(O)CC4)cn3)c21 [I-378, 4-(7-((3-fluoroazetidin-1-yl)methyl)imidazo[1,2-a]pyridin-3-yl)-7-((5-(4-hydroxy-piperidin-1-yl)pyridin-2-yl)amino)isoin-dolin-1-one]
< 100 | O=C1NCc2c(-c3cnc4cc(F)ccn34)ccc(Nc3cc(C4CCOCC4)[nH]n3)c21 [I-381, 4-(7-fluoroimidazo [1,2-a]pyridin-3-yl)-7-((5-(tetrahydro-2H-pyran-4-yl)-1H-pyrazol-3-yl)amino)isoin-dolin-1-one]
< 100 | CN(C)CC1CN(c2ccc(Nc3ccc(-c4cnc5cc(F)ccn45)c4c3C(=O)NC4)nc2)CCO1 (stereo not drawn) [I-383, 7-((5-(2-((dimethylamino)-methyl)mor pholino)pyridin-2-yl)amino)-4-(7-fluoroimidazo [1,2-a]pyridin-3-yl)isoindolin-1-one]
> 1000 | O=C1NCc2c(-c3cccn4ccnc34)ncc(Nc3ccc(N4CCC(O)CC4)cn3)c21 [I-384, 7-((5-(4-hydroxy-piperidin-1-yl)pyridin-2-yl)amino)-4-(imidazo[1,2-a]pyridin-8-yl)-2,3-dihydro-1H-pyrrolo[3,4-c]pyridin-1-one]
< 100 | CN(C)CC1(O)CCCN(c2ccc(Nc3ccc(-c4cnc5cc(F)ccn45)c4c3C(=O)NC4)nc2)C1 (stereo not drawn) [I-385, 7-((5-(3-((dimethylamino)-methyl)-3-hydroxypiperidin-1-yl)pyridin-2-yl)amino)-4-(7-fluoroimidazo [1,2-a]pyridin-3-yl)isoindolin-1-one]
< 100 | CN(C)CCN1CCC(c2ccc(Nc3cnc(-c4ccnc5c4ccn5C)c4c3C(=O)NC4)nc2)CC1=O (stereo not drawn) [I-386, 7-((5-(1-(2-(dimethylami-no)ethyl)-2-oxopiperidin-4-yl)pyridin-2-yl)amino)-4-(1-methyl-1H-pyrrolo[2,3-b]pyridin-4-yl)-2,3-dihydro-1H-pyrrolo[3,4-c]pyridin-1-one]
< 100 | O=C1NCc2c(-c3cnc4cc(F)ccn34)ccc(Nc3ccc(N4CCC(O)(CN5CCCC5)CC4)cn3)c21 [I-387]
< 100 | CN1CCN(CC2(O)CCCN(c3ccc(Nc4ccc(-c5cnc6cc(F)ccn56)c5c4C(=O)NC5)nc3)C2)CC1 (stereo not drawn) [I-388, 4-(7-fluoroimidazo [1,2-a]pyridin-3-yl)-7-((5-(3-hydroxy-3-((4-methylpiperazin-1-yl)methyl)piper-idin-1-yl)pyridin-2-yl)amino)isoin-dolin-1-one]
< 100 | Cc1cc(Nc2ccc(N3CCC(O)CC3)cn2)c2c(c1-c1cnc3cc(F)ccn13)CNC2=O [I-389, 4-(7-fluoroimidazo [1,2-a]pyridin-3-yl)-7-((5-(4-hydroxypiperidin-1-yl)pyridin-2-yl)amino)-5-methylisoindol in-1-one]
100 to 1000 | Cn1ccc2c(-c3ncc(Nc4cccc(C5CCNCC5)n4)c4c3CNC4=O)ccnc21 [I-390, 4-(1-methyl-1H-pyrrolo[2,3-b]pyridin-4-yl)-7-((6-(piperidin-4-yl)pyridin-2-yl)amino)-2,3-dihydro-1H-pyrrolo[3,4-c]pyridin-1-one]
< 100 | COC[C@]1(O)CCCN(c2ccc(Nc3ccc(-c4cnc5cc(F)ccn45)c4c3C(=O)NC4)nc2)C1 [I-393, (S)-4-(7-fluoroimidazo [1,2-a]pyridin-3-yl)-7-((5-(3-hydroxy-3-(methoxymeth-yl)piperidin-1-yl)pyridin-2-yl)amino)isoin-dolin-1-one]
< 100 | COC[C@@]1(O)CCCN(c2ccc(Nc3ccc(-c4cnc5cc(F)ccn45)c4c3C(=O)NC4)nc2)C1 [I-394, (R)-4-(7-fluoroimidazo [1,2-a]pyridin-3-yl)-7-((5-(3-hydroxy-3-(methoxymeth-yl)piperidin-1-yl)pyridin-2-yl)amino)isoin-dolin-1-one]

Structure (SMILES) | IC50 [nM]
O=C1NCc2c(-c3cnc4cc(F)ccn34)ccc(Nc3cnn(C4CCOCC4)c3)c21 [I-379, 4-(7-fluoroimidazo [1,2-a]pyridin-3-yl)-7-((1-(tetrahydro-2H-pyran-4-yl)-1H-pyrazol-4-yl)amino)isoin-dolin-1-one] | 100 to 1000
CN(C)Cc1ccn2c(-c3ccc(Nc4ccc(N5CCC(O)CC5)cn4)c4c3CNC4=O)cnc2c1 [I-380, 4-(7-((dimethylamino)-methyl)imi-dazo[1,2-a]pyridin-3-yl)-7-((5-(4-hydroxy-piperidin-1-yl)pyridin-2-yl)amino)isoin-dolin-1-one] | 100 to 1000
